# Reference: patent publication US20240246942A1, “KINASE INHIBITORS FOR THE TREATMENT OF NEURODEGENERATIVE DISEASES” (priority 2020, published 2024)
# Read-outs that look alike come from different tables or passages of the source.
# Key:
# Assay in all cases: biochemical
# [1] = biological target: T1, panel of 374 wild-type kinases (Homo sapiens, UniProt P06493)
# T1 construct: purchased Reaction Biology Corporation
# [2] = biological target: T2, panel of 374 wild-type kinases (Homo sapiens, UniProt P30530); details: read-out: % Enzyme Activity (relative to DMSO controls), AXL
# T2 construct: purchased Reaction Biology Corporation
# T2 sequence (P30530 26-894): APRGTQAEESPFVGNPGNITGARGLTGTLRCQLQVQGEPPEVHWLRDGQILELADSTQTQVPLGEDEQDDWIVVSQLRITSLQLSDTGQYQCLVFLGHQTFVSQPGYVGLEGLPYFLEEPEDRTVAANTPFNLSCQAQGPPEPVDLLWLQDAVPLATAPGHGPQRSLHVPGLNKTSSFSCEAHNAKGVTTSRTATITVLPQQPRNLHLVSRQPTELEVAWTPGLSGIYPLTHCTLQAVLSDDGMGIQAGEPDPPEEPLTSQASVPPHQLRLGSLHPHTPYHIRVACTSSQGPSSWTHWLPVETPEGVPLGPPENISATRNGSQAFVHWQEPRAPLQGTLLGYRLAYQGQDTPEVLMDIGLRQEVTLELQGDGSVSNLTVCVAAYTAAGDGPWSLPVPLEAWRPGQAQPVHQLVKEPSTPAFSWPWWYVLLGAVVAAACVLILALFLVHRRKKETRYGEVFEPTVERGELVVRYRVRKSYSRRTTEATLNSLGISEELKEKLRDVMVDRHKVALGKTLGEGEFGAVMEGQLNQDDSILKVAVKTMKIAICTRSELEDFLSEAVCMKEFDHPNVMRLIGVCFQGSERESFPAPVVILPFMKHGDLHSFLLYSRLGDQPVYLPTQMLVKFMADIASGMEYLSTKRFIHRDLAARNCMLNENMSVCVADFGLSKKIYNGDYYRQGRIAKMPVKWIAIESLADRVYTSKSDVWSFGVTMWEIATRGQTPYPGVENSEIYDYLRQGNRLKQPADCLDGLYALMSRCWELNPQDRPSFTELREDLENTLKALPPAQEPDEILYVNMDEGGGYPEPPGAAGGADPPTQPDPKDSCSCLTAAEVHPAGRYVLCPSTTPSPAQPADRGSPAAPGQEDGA
# [3] = biological target: T3, panel of 374 wild-type kinases (Homo sapiens, UniProt P36894); details: read-out: % Enzyme Activity (relative to DMSO controls), ALK3/BMPR1A
# T3 construct: purchased Reaction Biology Corporation
# [4] = biological target: T4, panel of 374 wild-type kinases (Homo sapiens, UniProt P51813); details: read-out: % Enzyme Activity (relative to DMSO controls), BMX/ETK
# T4 construct: purchased Reaction Biology Corporation
# T4 sequence (P51813 1-675): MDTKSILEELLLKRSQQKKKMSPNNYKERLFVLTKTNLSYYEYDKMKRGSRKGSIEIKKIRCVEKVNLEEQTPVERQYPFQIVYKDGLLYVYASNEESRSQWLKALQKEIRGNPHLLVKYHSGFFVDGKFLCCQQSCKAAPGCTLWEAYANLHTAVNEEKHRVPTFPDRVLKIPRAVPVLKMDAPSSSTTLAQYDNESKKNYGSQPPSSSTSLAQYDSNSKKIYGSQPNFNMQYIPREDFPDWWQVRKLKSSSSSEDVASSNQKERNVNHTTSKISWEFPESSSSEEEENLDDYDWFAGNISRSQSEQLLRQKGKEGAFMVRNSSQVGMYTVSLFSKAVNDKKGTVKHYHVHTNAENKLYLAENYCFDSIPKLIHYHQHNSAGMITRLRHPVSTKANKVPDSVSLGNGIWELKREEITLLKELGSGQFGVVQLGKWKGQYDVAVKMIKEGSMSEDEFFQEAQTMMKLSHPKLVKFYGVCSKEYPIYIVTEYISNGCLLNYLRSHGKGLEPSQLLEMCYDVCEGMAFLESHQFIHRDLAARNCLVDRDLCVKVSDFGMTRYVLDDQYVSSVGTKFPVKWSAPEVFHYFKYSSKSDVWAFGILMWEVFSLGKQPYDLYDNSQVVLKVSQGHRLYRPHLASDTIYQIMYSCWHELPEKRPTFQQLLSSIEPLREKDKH
# [5] = biological target: T5, panel of 374 wild-type kinases (Homo sapiens, UniProt Q99986); details: read-out: % Enzyme Activity (relative to DMSO controls), kinase VRK1
# T5 construct: purchased Reaction Biology Corporation
# T5 sequence (Q99986 1-396): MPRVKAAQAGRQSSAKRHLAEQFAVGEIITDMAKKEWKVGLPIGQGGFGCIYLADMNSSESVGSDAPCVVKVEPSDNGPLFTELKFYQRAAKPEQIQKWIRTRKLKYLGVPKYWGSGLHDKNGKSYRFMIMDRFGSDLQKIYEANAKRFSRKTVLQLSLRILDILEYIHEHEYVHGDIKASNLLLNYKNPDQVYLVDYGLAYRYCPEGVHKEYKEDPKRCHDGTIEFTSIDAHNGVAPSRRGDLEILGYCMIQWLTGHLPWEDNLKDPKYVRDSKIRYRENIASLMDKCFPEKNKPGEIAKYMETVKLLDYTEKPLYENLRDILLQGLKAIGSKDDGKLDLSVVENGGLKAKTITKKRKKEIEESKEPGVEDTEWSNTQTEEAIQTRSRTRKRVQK
# [6] = biological target: T6, panel of 374 wild-type kinases (Homo sapiens, UniProt Q9UPZ9); details: read-out: % Enzyme Activity (relative to DMSO controls), LCK2/ICK
# T6 construct: purchased Reaction Biology Corporation
# T6 sequence (Q9UPZ9 1-632): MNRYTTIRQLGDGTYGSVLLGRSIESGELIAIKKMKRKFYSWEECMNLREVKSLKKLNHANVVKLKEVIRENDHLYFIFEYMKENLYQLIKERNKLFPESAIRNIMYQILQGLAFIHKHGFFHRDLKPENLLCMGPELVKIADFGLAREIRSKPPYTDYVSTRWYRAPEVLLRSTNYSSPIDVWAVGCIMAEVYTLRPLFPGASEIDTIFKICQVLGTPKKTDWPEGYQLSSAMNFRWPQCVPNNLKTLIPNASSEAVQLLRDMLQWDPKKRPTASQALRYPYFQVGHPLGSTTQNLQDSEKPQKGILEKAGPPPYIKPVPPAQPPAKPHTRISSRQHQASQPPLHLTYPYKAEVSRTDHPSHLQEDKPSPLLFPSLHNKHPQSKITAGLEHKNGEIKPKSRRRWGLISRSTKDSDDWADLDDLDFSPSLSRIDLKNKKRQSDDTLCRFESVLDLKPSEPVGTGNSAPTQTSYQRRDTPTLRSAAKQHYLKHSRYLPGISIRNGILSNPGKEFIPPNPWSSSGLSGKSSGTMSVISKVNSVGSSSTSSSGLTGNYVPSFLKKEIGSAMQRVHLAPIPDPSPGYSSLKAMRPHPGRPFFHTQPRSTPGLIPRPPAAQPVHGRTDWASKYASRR
# [7] = read-out: % Enzyme Activity (relative to DMSO controls), CDK1/cyclin A
# [8] = read-out: % Enzyme Activity (relative to DMSO controls), CDK1/cyclin B
# [9] = read-out: % Enzyme Activity (relative to DMSO controls), CDK1/cyclin E
# T1 sequence (P06493 whole entry): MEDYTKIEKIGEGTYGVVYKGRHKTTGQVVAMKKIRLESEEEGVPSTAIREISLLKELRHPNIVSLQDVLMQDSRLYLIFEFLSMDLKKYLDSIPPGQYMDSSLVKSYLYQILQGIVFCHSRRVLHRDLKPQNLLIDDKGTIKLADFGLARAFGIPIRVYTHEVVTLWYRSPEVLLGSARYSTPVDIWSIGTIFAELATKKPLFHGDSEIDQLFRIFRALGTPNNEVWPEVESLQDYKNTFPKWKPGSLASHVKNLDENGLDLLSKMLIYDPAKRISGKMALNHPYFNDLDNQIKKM
# T3 sequence (P36894 24-532): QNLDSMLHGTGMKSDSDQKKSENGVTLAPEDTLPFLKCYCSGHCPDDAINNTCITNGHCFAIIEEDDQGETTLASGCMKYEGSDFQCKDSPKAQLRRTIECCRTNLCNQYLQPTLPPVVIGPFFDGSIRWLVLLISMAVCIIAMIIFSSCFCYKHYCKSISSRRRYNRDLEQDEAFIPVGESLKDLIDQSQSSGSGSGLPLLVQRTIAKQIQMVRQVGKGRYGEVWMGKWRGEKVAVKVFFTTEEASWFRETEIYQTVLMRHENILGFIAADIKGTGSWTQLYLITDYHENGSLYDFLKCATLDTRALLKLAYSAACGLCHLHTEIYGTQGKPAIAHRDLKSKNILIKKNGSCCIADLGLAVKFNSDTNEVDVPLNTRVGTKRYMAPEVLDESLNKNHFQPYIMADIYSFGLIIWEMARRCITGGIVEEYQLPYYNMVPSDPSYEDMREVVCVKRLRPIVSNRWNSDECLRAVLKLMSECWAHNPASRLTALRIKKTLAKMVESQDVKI
Structure (SMILES),"remaining activity at 5 µM [1, 7] [%]","remaining activity at 5 µM [1, 8] [%]","remaining activity at 5 µM [1, 9] [%]",remaining activity at 5 µM [2] [%],remaining activity at 5 µM [3] [%],remaining activity at 5 µM [4] [%],remaining activity at 5 µM [5] [%],remaining activity at 5 µM [6] [%],"remaining activity at 10 µM [1, 7] [%]","remaining activity at 10 µM [1, 8] [%]","remaining activity at 10 µM [1, 9] [%]",remaining activity at 10 µM ([2]; 10 uM) [%],remaining activity at 10 µM ([3]; 10 uM) [%],remaining activity at 10 µM ([4]; 10 uM) [%],remaining activity at 10 µM ([5]; 10 uM) [%],remaining activity at 10 µM ([6]; 10 uM) [%]
"O=C(Nc1cnn(-c2csc(C(=O)NC3COC3)c2)c1)Nc1ccccc1Cl [Compound 17, 4-(4-(3-(2-chlorophenyl)ureido)-1H-pyrazol-1-yl)-N-(oxetan-3-yl)thiophene-2-carboxamide]",95.5,92.6,94.7,96.7,105,106,109,112,,,,,,,,
"O=C(Nc1cnn(-c2csc(C(=O)NC3COC3)c2)c1)Nc1c(F)cccc1Cl [Compound 25, 4-(4-(3-(2-chloro-6-fluorophenyl)ureido)-1H-pyrazol-1-yl)-N-(oxetan-3-yl)thiophene-2-carboxamide]",86.3,105,98.4,73,103,96.8,91.9,101,,,,,,,,
"Cc1sc(C(=O)NC2COC2)cc1-n1cc(NC(=O)Nc2c(F)cccc2Cl)cn1 [Compound 27, 4-(4-(3-(2-chloro-6-fluorophenyl)ureido)-1H-pyrazol-1-yl)-5-methyl-N-(oxetan-3-yl)thiophene-2-carboxamide]",,,,,,,,,105,92.7,100,86.6,92.5,92.9,109,100
